“Also recorded” adds a separate entry of the source. Read-outs that look alike come from different tables or passages of the source. Where only a bound is given, the exact number is not on record here.

Assay [1] relates to phenylquinone-induced muscular writhing. The experiment in a line: Analgesic activity, phenylquinone-writhing test. Type of assay: in vivo, Swiss albino mice. The note with it: for Physiological activity: analgesic (in words): mouse, in vivo. The protocol: (§1) The compounds of formula (1) have anti-inflammatory, analgesic, hyperglycemic, and/or hypoglycemic properties. […] A. Winter, p.190-202, Int. Symposium on Non-Steroidal Anti-Inflammatory Drugs, Milan, 1964, Excerpta Medica Foundation, Amsterdam. […] J. Pharmac. Chemother. 32, 295 (1968). […] Chem. 3, 99 (1961) and by Barthelmai et al., in Klin. Wchschr. 40, 585 (1962).
(§2) Initially the activity of the compound tested on an animal was determined at a single dose. If the substance was active at this dose, it was subjected to limited repeat testing. If the presence of activity was confirmed by repetition of the testing, a dose response relation was constructed and the effective dose (ED50) determined. If toxicity was encountered with the initial dose, the dose was reduced until one was reached which was tolerated by the animals tested.
Substances were administered subcutaneously to five Swiss albino mice, weighing 18 to 22 grams, before determining their activity in the phenylquinone-writhing test (see Collier et al, cited above). The active ingredients were suspended in a solution of physiological saline and "Tween 80™" surfactant. A dose amounting to 10 milliliters of physiological saline solution and active ingredient per kilogram of bodyweight was administered to the mice according to the dosage as set out in Table 2. The test results are shown in Table 2, the compounds tested being compared to Aspirin™ and dextropropoxyphene™.
For orientation: An intraperitoneal irritant provokes the stretching counted in writhing tests.

In assay [2] the test system is blood glucose. The experiment in a line: Determination of blood glucose (hyperglycemic / hypoglycemic activity). It is filed as in vivo, Wistar rats. The conditions noted are these: for % change in blood-glucose concentrations, post-treatment 2 hours / % change in blood-glucose concentrations, post-treatment 4 hours / ED50: oral, fasted rats; for % change in blood-glucose concentrations, post-treatment 2 hours / % change in blood-glucose concentrations, post-treatment 4 hours: 100 mg/kg; for Physiological activity: hypoglycemic (in words) / Physiological activity: hyperglycemic (in words): rat, in vivo; for ED50: Rattus norvegicus, dose elevating blood glucose by 50 percent. How it is done: as §1, §2
Compounds were suspended in distilled water and were administered orally to overnight-fasted Wistar rats. Capillary blood samples were obtained from the tail at zero, two, and four hours post-treatment and the sera derived from these samples were analyzed for glucose by spectrophotometric determination of enzymatically produced NADH2 (reduced form of nicotinamide adenine dinucleotide), using the commercial reagent "Escalab G-15™" according to the method described by Holland et al and by Barthelmai et al, both cited above. The test results are shown in Tables 4 and 5, and the ED50 values shown in Table 4 were calculated as the dose of compound which elevated blood glucose levels by 50 percent.

Assay [3] relates to carrageenan-induced paw edema. Nature of the assay: Anti-inflammatory activity, carrageenan-induced paw edema. Further details: species or system Sprague-Dawley rats. The conditions noted are these: rat, in vivo. How it is done: as §1, §2
Substances were administered subcutaneously to six Sprague-Dawley rats, weighing 100-120 g. A suspension of 0.03% carageenan was injected under the plantar skin of a hind paw. The increase in volume of the inflamed paw was measured 3 and 5 hours after drug administration.

[4] abbreviates: Mus musculus, sc, mice, read-out: Response % inhibition.
[5] abbreviates: Mus musculus, sc, mice, 128 mg/kg, read-out: Response % inhibition.
[6] abbreviates: Mus musculus, sc, mice, Litchfield and Wilcoxon, read-out: ED50.
[7] abbreviates: 2 hours, read-out: ED50, hyperglycemic activity, post-treatment 2 hours.
Setting [8] is: 4 hours, read-out: ED50, hyperglycemic activity, post-treatment 4 hours.

Take `O=C(Cc1ccc2c(c1)OCO2)NN1CC=CCC1` [Compound A-70, N-(3,4-methylenedioxyphenylmethylenecarbonylamino)-1,2,3,6-tetrahydropyridine]: the inhibition in vivo at 60 mg/kg in assay [1] (Mus musculus, sc, mice, 60 mg/kg, read-out: Response % inhibition) turned out to be 80%. Moreover, the inhibition in vivo at 120 mg/kg in assay [1] (setting [4]) came to 91%. Also, the “Physiological activity: analgesic (in words)” value in assay [1] is “active analgesics; also recorded: analgesic”.

In the case of `CN1CC=C(C(=O)NN2CC=CCC2)CC1` [Compound A-50, N-[4-(1-methyl-1,2,3,6-tetrahydropyridyl)carbonylamino]-1,2,3,6-tetrahydropyridine], the inhibition in vivo at 256 mg/kg in assay [1] (setting [4]) was determined as 47%. Besides, the “Physiological activity: analgesic (in words)” value in assay [1] is given as “analgesic”.

Take `COc1ccc(C(=O)NN2CC=CCC2)cc1` [Compound A-77, N-(4-methoxyphenylcarbonylamino)-1,2,3,6-tetrahydropyridine]: in assay [1] (setting [5]), the inhibition in vivo at 128 mg/kg came out at 31.4%. Besides, in assay [1], the “Physiological activity: analgesic (in words)” value is recorded as “analgesic”. Besides, the “% change in blood-glucose concentrations, post-treatment 2 hours” value (shortened to “% change … post-treatment 2 hours”) in assay [2] (2 hours) is on record as -69%. For the same molecule, the “% change in blood-glucose concentrations, post-treatment 4 hours” value (“% change … post-treatment 4 hours” for short) in assay [2] (4 hours) is -26%. In assay [2], the “Physiological activity: hypoglycemic (in words)” value is on record as “potent hypoglycemic activity”.

`O=C(NN1CC=CCC1)c1cccc[n+]1[O-]` [Compound A-36, N-(2-pyridylcarbonylamino-1-oxide)-1,2,3,6-tetrahydropyridine]: the inhibition in vivo at 128 mg/kg in assay [1] (setting [5]) was 55.3%. In addition, the “Physiological activity: analgesic (in words)” value in assay [1] is “analgesic”. Further, the “Physiological activity: anti-inflammatory (in words)” value in assay [3] is listed as “anti-inflammatory”.

In the case of `COC(=O)N1CC=C(C(=O)NN2CC=CCC2)CC1` [Compound A-49, N-[4-(1-methoxycarbonyl-1,2,3,6-tetrahydropyridyl)carbonylamino]-1,2,3,6-tetrahydropyridine], in assay [1] (setting [4]), the inhibition in vivo at 64 mg/kg is 3% and the inhibition in vivo at 256 mg/kg turned out to be 95%. Also, the inhibition in vivo at 128 mg/kg in assay [1] (setting [5]) was 78%. Moreover, the “Physiological activity: analgesic (in words)” value in assay [1] was “active analgesics; also recorded: analgesic”. In addition, the “Physiological activity: anti-inflammatory (in words)” value in assay [3] was “anti-inflammatory”.

`O=C(NN1CC=CCC1)c1ccc(Cl)c(Cl)c1` [Compound A-80, N-(3,4-dichlorophenylcarbonylamino)-1,2,3,6-tetrahydropyridine]: in assay [1] (setting [5]), the inhibition in vivo at 128 mg/kg was 72%. Further, in assay [1], the “Physiological activity: analgesic (in words)” value is reported as “active analgesics; also recorded: analgesic”. The “% change … post-treatment 2 hours” value in assay [2] (2 hours) is -50%. Also, the “% change … post-treatment 4 hours” value in assay [2] (4 hours) is reported as -50%. Further, the “Physiological activity: hypoglycemic (in words)” value in assay [2] was “potent hypoglycemic activity”.

`O=C(COc1ccccc1)NN1CC=CCC1` [Compound A-62, N-(phenoxymethylenecarbonylamino)-1,2,3,6-tetrahydropyridine]: in assay [1] (Mus musculus, sc, mice, 25 mg/kg, read-out: Response % inhibition), the inhibition in vivo at 25 mg/kg amounted to 50%. Also, the figures for the ED50 in assay [1] (setting [6]), in assay [2] (setting [7]) and in assay [2] (setting [8]) were 25 mg/kg, 41 mg/kg and 53 mg/kg, respectively. In assay [1], the “Physiological activity: analgesic (in words)” value is recorded as “active analgesics; also recorded: analgesic”. Also, the “Physiological activity: hyperglycemic (in words)” value in assay [2] is recorded as “significant hyperglycemic activity; also recorded: hypergylcemic”. For the same molecule, in assay [3], the “Physiological activity: anti-inflammatory (in words)” value is “striking anti-inflammatory action, comparing favourably with the standard compound used”.

As for “N-(benzoylamino)-3(diethylaminocarbonyl)-1,2,3,6-tetrahydropyridine [Compound A-43]”, the “Physiological activity: analgesic (in words)” value in assay [1] is “analgesic”. In assay [1] (s.c., mice, 128 mg/kg), this molecule had a Response % inhibition of 39.0%.

As to `CCC(=O)O[C@](Cc1ccccc1)(c1ccccc1)[C@H](C)CN(C)C` [Dextropropoxyphene, reference compound], the ED50 in assay [1] (Mus musculus, sc) turned out to be 56 mg/kg.

With `CCCNC(=O)NS(=O)(=O)c1ccc(Cl)cc1` [Chlorpropamide, reference compound], in assay [2] (2 hours), the “% change … post-treatment 2 hours” value is more than -40%. Moreover, the “% change … post-treatment 4 hours” value in assay [2] (4 hours) is more than -40%.

`CC(=O)Oc1ccccc1C(=O)O` [Aspirin, reference compound] returned an ED50 in assay [1] (Mus musculus, sc) of 52 mg/kg.

Consider `O=C(CCc1ccccc1)NN1CC=CCC1` [Compound A-55, N-(phenylethylcarbonylamino)-1,2,3,6-tetrahydropyridine], for which the inhibition in vivo at 120 mg/kg in assay [1] (setting [4]) came out at 42%. Besides, in assay [1], the “Physiological activity: analgesic (in words)” value was “analgesic”. Moreover, in assay [3], the “Physiological activity: anti-inflammatory (in words)” value is recorded as “striking anti-inflammatory action, comparing favourably with the standard compound used”.

With `O=C(Cc1cccnc1)NN1CC=CCC1` [Compound A-48, N-(3-picolylcarbonylamino)-1,2,3,6-tetrahydropyridine], in assay [1] (Mus musculus, sc, mice, 8 mg/kg, read-out: Response % inhibition), the inhibition in vivo at 8 mg/kg came to 28%. For the same molecule, in assay [1] (setting [4]), the inhibition in vivo at 16 mg/kg was 45%, the inhibition in vivo at 32 mg/kg is 94% and the inhibition in vivo at 256 mg/kg amounted to 100%. Moreover, the inhibition in vivo at 128 mg/kg in assay [1] (setting [5]) worked out at 100%. Besides, in assay [1] (setting [6]), the 50% effective dose (ED50) was 14.5 mg/kg. Besides, in assay [1], the “Physiological activity: analgesic (in words)” value was “active analgesics; also recorded: analgesic”. Further, the “Physiological activity: anti-inflammatory (in words)” value in assay [3] is “striking anti-inflammatory action, comparing favourably with the standard compound used”.

Consider `O=C(NN1CC=CCC1)C1CCCCC1` [Compound A-63, N-(cyclohexylcarbonylamino)-1,2,3,6-tetrahydropyridine], for which the inhibition in vivo at 16.5 mg/kg in assay [1] (Mus musculus, sc, mice, 16.5 mg/kg, read-out: Response % inhibition) was determined as 50%. The ED50 in assay [1] (setting [6]) turned out to be 16.5 mg/kg; in assay [2] (setting [7]), 36.5 mg/kg; in assay [2] (setting [8]), 53 mg/kg. The “Physiological activity: analgesic (in words)” value in assay [1] is reported as “active analgesics; also recorded: analgesic”. Moreover, the “Physiological activity: hyperglycemic (in words)” value in assay [2] is reported as “significant hyperglycemic activity”. In addition, the “Physiological activity: anti-inflammatory (in words)” value in assay [3] was “striking anti-inflammatory action, comparing favourably with the standard compound used”.

For the molecule `O=C(NN1CC=CCC1)c1ccc(Cl)cc1` [Compound A-79, N-(4-chlorophenylcarbonylamino)-1,2,3,6-tetrahydropyridine], the inhibition in vivo at 64 mg/kg in assay [1] (setting [4]) came to 33.9%. In addition, the “Physiological activity: analgesic (in words)” value in assay [1] was “analgesic”. In assay [2] (4 hours), the “% change … post-treatment 4 hours” value is -26%. Moreover, the “Physiological activity: hypoglycemic (in words)” value in assay [2] is given as “potent hypoglycemic activity”.

In the case of `COC(=O)N1C=CC(C(=O)NN2CC=CCC2)=CC1` [Compound A-45, N-[4-(1-methoxycarbonyl-1,2-dihydropyridyl)carbonylamino]-1,2,3,6-tetrahydropyridine], in assay [1] (setting [4]), the inhibition in vivo at 16 mg/kg is 61%, the inhibition in vivo at 32 mg/kg is 61% and the inhibition in vivo at 256 mg/kg amounted to 95%. Also, the inhibition in vivo at 128 mg/kg in assay [1] (setting [5]) was found to be 97%. Also, in assay [1], the “Physiological activity: analgesic (in words)” value is reported as “active analgesics; also recorded: analgesic”. Besides, in assay [3], the “Physiological activity: anti-inflammatory (in words)” value is listed as “striking anti-inflammatory action, comparing favourably with the standard compound used”.

Turning to `Cc1ccc(C(=O)NN2CC=CCC2)cc1` [Compound A-78, N-(4-methylphenylcarbonylamino)-1,2,3,6-tetrahydropyridine], the inhibition in vivo at 64 mg/kg in assay [1] (setting [4]) was determined as 92.4%. Further, the “Physiological activity: analgesic (in words)” value in assay [1] was “active analgesics; also recorded: analgesic”. Moreover, the “% change … post-treatment 2 hours” value in assay [2] (2 hours) is -73%. Moreover, in assay [2] (4 hours), the “% change … post-treatment 4 hours” value is recorded as -41%. Moreover, the “Physiological activity: hypoglycemic (in words)” value in assay [2] is listed as “potent hypoglycemic activity”.

For orientation: ED50 means the midpoint of the dose-response relation.

The values are drawn from patent US4338445A, “N-(Carbonylamino)-tetrahydropyridyl derivatives” (Canadian Patents & Development Limited, priority 1979, dated 1982).
